Source: patent US11427783B2, “Perfuming compositions” (Firmenich SA, priority 2016, dated 2022)
Where two headings read alike, the source gives them in different places.

Experiments:
[1] = Log P (n-octanol/water) of perfuming compounds
[2] = Volatility of perfuming compounds in air; assay type: physicochemical
[3] = Odor threshold of perfuming compounds in air; conditions: Table 4, watery note
[4] = Table 8, perfuming compounds having a sweet note
[5] = Table 6, perfuming compounds having a fruity note
[6] = Table 10, perfuming compounds having a woody note
[7] = Table 9, perfuming compounds having a gourmand note
[8] = n-octanol/water, perfuming compounds having a fruity note (Table 6)

## O=Cc1ccccc1 [BENZALDEHYDE]
physchem
  logP: 1.33
[1]; [4]
  Log P (n-octanol/water): 1.33

## C/C=C/C(=O)C1C(C)=CCCC1(C)C (racemic)
[2]; [5]
  Volatility (μg/l air): 113.31 μg/l air
physchem; n-octanol/water
  logP: 3.65
[1]; [5]
  Log P (n-octanol/water): 3.65
[1]; [4]
  Log P (n-octanol/water): 3.65
[1]; [6]
  Log P (n-octanol/water): 3.65

## CC/C=C\CC/C=C/C=O [(2E,6Z)-2,6-NONADIENAL″, (2E,6Z)-2,6-NONADIENAL]
[2]; Table 4, watery note
  Volatility: 632.43 μg/l air
[2]; Table 5, perfuming compounds having a green note
  Volatility: 632.43 μg/l air
[3]
  Odor Threshold: 1.46E−04 μg/l air

## CCCCCC1CCCC1=O (racemic) [(+−)-2-pentylcyclopentanone]
[2]; [4]
  Volatility (μg/l air): 560.22 μg/l air
[2]; [7]
  Volatility (μg/l air): 560.22 μg/l air
physchem; n-octanol/water
  logP: 3.62
[1]; [4]
  Log P (n-octanol/water): 3.62
[1]; [7]
  Log P (n-octanol/water): 3.62

## CCCCCC/C=C/C(=O)OC [methyl (2E)-2-nonenoate]
physchem; n-octanol/water
  logP: 4.05
[1]; [8]
  Log P (n-octanol/water): 4.05

## O=C(OCc1ccccc1)c1ccccc1 [BENZYL BENZOATE]
physchem; n-octanol/water
  logP: 3.64
[1]; Table 7, citrus note
  Log P (n-octanol/water): 3.64

## CCOC(=O)C(C)CC (racemic) [(+−)-ethyl 2-methylbutanoate]
physchem; n-octanol/water
  logP: 2.58
[1]; [8]
  Log P (n-octanol/water): 2.58

## CC(=O)OC(c1ccccc1)C(Cl)(Cl)Cl (racemic) [(+−)-2,2,2-TRICHLORO-1-PHENYLETHYL ACETATE]
physchem; n-octanol/water
  logP: 3.2
[1]
  Log P (n-octanol/water): 3.20

## O=C1CCCCCCC/C=C/CCCCCCO1 [(10E)-oxacycloheptadec-10-en-2-one]
physchem; n-octanol/water
  logP: 6.15
[1]; Table 7, citrus note
  Log P (n-octanol/water): 6.15

## C=CCCC(=O)C1=CCCC(C)(C)C1 [1-(5,5-dimethyl-1-cyclohexen-1-yl)-4-penten-1-one]
physchem; n-octanol/water
  logP: 3.89
[1]; [5]
  Log P (n-octanol/water): 3.89

## C/C=C/c1ccc(O)c(OC)c1 [2-methoxy-4-[(1E)-1-propen-1-yl]phenol]
[2]; [4]
  Volatility (μg/l air): 11.28 μg/l air
[2]; [7]
  Volatility (μg/l air): 11.28 μg/l air
physchem; n-octanol/water
  logP: 2.15
[1]; [7]
  Log P (n-octanol/water): 2.15

## CCCCCCOC(=O)c1ccccc1O [HEXYL 2-HYDROXYBENZOATE]
physchem; n-octanol/water
  logP: 5.55
[1]; [5]
  Log P (n-octanol/water): 5.55
[1]; Table 7, citrus note
  Log P (n-octanol/water): 5.55

## C/C=C/c1ccc(OC(C)=O)c(OC)c1 [(E)-2-METHOXY-4-(1-PROPENYL)PHENYL ACETATE]
physchem; n-octanol/water
  logP: 2.56
[1]; Table 7, citrus note
  Log P (n-octanol/water): 2.56

## CC1CCC(=O)O1 (racemic) [(+−)-4-PENTANOLIDE]
physchem
  logP: -0.12
[1]; Table 7, citrus note
  Log P (n-octanol/water): −0.12

## CC1CC(C)(c2ccccc2)CO1 (racemic)
physchem; n-octanol/water
  logP: 3.02
[1]; [8]
  Log P (n-octanol/water): 3.02

## CC/C=C\CCOC(=O)C/C=C\CC [(3Z)-3-hexen-1-yl (3Z)-3-hexenoate]
physchem; n-octanol/water
  logP: 4.22
[1]; [4]
  Log P (n-octanol/water): 4.22
[1]; [7]
  Log P (n-octanol/water): 4.22
[1]; [8]
  Log P (n-octanol/water): 4.22

## CCCCCC/C(C=O)=C\c1ccccc1 [(2E)-2-benzylideneoctanal]
physchem; n-octanol/water
  logP: 4.86
[1]; [5]
  Log P (n-octanol/water): 4.86

## CCCCOC(C)=O [BUTYL ACETATE]
[2]
  Volatility (μg/l air): 117207.52 μg/l air
physchem; n-octanol/water
  logP: 2.11
[1]; [4]
  Log P (n-octanol/water): 2.11
[1]; [7]
  Log P (n-octanol/water): 2.11

## COc1cc(C=O)ccc1OC(=O)C(C)C
[2]; [5]
  Volatility (μg/l air): 1.01 μg/l air
[2]; [4]
  Volatility (μg/l air): 1.01 μg/l air
[2]; [7]
  Volatility (μg/l air): 1.01 μg/l air
physchem; n-octanol/water
  logP: 1.9
[1]; [4]
  Log P (n-octanol/water): 1.90
[1]; [7]
  Log P (n-octanol/water): 1.90

## CC(C)C(=O)OCCOc1ccccc1 [2-phenoxyethyl 2-methylpropanoate]
physchem; n-octanol/water
  logP: 2.82
[1]; [5]
  Log P (n-octanol/water): 2.82

## CCCCC/C=C\C=C\C(=O)OCC [ethyl (2E,4Z)-2,4-decadienoate]
physchem; n-octanol/water
  logP: 4.69
[1]; [5]
  Log P (n-octanol/water): 4.69

## CCCCCC1CCCC(=O)O1 (racemic) [(+−)-6-pentyltetrahydro-2H-pyran-2-one]
[2]; [5]
  Volatility (μg/l air): 9.61 μg/l air
[2]; [4]
  Volatility (μg/l air): 9.61 μg/l air
[2]; [7]
  Volatility (μg/l air): 9.61 μg/l air
physchem; n-octanol/water
  logP: 2.22
[1]; [4]
  Log P (n-octanol/water): 2.22
[1]; [7]
  Log P (n-octanol/water): 2.22

## CCC(=O)/C=C/C1=C(C)CCCC1(C)C
[2]; [4]
  Volatility (μg/l air): 15.81 μg/l air
[2]; [7]
  Volatility (μg/l air): 15.81 μg/l air
physchem; n-octanol/water
  logP: 4.47
[1]; [7]
  Log P (n-octanol/water): 4.47

## CC(C)(O)CCC1CCCCC1 [4-CYCLOHEXYL-2-METHYL-2-BUTANOL]
physchem; n-octanol/water
  logP: 3.93
[1]; Table 7, citrus note
  Log P (n-octanol/water): 3.93

## C/C=C/C(=O)[C@@H]1[C@@H](C)C=CCC1(C)C (racemic)
[2]; [4]
  Volatility (μg/l air): 143.53 μg/l air
[2]; [7]
  Volatility (μg/l air): 143.53 μg/l air
physchem; n-octanol/water
  logP: 4.13
[1]; [7]
  Log P (n-octanol/water): 4.13

## CCCCCCOC(=O)C(C)C [hexyl 2-methylpropanoate]
physchem; n-octanol/water
  logP: 4.31
[1]; [8]
  Log P (n-octanol/water): 4.31

## CC/C=C\CCOC(=O)OC [(3Z)-hex-3-en-1-yl methyl carbonate]
physchem; n-octanol/water
  logP: 2.97
[1]; [8]
  Log P (n-octanol/water): 2.97

## CC(=O)CCC1=C(C)CCCC1(C)C
[2]; [4]
  Volatility (μg/l air): 63.61 μg/l air
[2]; [6]
  Volatility (μg/l air): 63.61 μg/l air
physchem; n-octanol/water
  logP: 3.99
[1]; [6]
  Log P (n-octanol/water): 3.99
